The record followed here is paper doi:10.1101/706168v1 (biorxiv, 2019).

Assay [1] deals with TASK-1 (K2P3.1), wild type (Homo sapiens, UniProt O14649). The assay can be described thus: two-electrode voltage clamp, Xenopus oocytes. It is filed as cell-based. In general terms: In two-electrode clamp one electrode senses voltage and the other passes current.
Another assay addresses T1, Kir3.1/3.4 (Homo sapiens, UniProt P48544+P48549).
T1 sequence (P48544 1-419): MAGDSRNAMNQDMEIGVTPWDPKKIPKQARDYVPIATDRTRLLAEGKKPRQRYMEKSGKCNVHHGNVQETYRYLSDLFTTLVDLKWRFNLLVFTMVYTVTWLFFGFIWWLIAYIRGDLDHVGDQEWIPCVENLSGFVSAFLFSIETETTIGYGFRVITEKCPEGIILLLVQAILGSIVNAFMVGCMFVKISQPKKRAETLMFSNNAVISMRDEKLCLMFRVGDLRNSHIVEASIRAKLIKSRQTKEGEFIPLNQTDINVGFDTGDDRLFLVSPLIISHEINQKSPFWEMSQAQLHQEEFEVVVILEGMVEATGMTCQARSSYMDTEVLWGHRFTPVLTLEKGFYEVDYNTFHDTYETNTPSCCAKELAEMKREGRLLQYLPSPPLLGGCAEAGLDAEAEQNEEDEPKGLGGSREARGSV
T1 sequence (P48549 1-501): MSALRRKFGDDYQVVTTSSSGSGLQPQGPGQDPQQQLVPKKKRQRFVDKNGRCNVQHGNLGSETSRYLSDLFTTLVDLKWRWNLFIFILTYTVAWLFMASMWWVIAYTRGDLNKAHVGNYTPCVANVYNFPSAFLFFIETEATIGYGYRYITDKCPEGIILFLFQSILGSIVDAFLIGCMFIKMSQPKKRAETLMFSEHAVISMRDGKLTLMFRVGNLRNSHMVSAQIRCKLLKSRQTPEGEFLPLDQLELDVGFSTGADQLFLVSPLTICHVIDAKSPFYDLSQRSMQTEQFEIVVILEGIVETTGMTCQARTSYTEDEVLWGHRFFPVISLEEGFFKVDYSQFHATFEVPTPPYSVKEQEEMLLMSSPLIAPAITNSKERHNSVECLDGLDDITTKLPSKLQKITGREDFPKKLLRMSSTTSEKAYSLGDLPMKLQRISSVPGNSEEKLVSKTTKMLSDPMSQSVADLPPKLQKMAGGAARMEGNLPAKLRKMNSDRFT
The experiment in a line: cell-based.

The target of the next assay is TRPA1 (Homo sapiens, UniProt O75762). The experiment in a line: cell-based.
Sequence of TRPA1 (O75762 whole entry): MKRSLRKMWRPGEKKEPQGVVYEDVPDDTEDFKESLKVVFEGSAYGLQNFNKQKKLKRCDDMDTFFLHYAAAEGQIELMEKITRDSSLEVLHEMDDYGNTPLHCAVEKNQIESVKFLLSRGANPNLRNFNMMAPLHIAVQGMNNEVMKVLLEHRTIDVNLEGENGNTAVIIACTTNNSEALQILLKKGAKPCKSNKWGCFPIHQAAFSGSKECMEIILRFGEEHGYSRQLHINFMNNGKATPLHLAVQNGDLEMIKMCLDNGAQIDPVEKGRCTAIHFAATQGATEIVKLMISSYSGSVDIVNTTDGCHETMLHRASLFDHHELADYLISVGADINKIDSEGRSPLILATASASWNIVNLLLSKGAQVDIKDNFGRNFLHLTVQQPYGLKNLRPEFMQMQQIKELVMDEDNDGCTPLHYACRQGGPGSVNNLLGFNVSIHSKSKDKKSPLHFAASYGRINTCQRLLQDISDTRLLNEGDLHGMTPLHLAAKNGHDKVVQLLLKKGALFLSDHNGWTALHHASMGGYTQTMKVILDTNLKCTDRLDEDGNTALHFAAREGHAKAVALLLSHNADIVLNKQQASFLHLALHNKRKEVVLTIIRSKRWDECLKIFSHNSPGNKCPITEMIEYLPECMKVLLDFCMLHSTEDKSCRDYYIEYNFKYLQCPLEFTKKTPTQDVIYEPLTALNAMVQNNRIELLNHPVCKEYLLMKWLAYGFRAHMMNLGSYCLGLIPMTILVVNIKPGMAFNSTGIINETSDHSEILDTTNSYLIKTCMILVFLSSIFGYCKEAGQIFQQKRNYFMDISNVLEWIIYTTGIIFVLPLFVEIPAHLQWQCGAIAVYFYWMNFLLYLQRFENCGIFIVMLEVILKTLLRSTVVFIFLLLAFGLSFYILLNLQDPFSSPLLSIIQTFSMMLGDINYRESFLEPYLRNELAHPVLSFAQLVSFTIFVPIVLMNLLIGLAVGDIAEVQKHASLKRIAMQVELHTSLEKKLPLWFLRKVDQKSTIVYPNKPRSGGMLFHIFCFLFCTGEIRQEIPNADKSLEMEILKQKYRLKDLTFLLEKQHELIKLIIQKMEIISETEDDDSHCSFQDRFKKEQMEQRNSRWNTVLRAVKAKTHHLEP
A further assay concerns the target T2, HCN4 (Homo sapiens, UniProt Q9Y3Q4).
T2 sequence (Q9Y3Q4 1-1203): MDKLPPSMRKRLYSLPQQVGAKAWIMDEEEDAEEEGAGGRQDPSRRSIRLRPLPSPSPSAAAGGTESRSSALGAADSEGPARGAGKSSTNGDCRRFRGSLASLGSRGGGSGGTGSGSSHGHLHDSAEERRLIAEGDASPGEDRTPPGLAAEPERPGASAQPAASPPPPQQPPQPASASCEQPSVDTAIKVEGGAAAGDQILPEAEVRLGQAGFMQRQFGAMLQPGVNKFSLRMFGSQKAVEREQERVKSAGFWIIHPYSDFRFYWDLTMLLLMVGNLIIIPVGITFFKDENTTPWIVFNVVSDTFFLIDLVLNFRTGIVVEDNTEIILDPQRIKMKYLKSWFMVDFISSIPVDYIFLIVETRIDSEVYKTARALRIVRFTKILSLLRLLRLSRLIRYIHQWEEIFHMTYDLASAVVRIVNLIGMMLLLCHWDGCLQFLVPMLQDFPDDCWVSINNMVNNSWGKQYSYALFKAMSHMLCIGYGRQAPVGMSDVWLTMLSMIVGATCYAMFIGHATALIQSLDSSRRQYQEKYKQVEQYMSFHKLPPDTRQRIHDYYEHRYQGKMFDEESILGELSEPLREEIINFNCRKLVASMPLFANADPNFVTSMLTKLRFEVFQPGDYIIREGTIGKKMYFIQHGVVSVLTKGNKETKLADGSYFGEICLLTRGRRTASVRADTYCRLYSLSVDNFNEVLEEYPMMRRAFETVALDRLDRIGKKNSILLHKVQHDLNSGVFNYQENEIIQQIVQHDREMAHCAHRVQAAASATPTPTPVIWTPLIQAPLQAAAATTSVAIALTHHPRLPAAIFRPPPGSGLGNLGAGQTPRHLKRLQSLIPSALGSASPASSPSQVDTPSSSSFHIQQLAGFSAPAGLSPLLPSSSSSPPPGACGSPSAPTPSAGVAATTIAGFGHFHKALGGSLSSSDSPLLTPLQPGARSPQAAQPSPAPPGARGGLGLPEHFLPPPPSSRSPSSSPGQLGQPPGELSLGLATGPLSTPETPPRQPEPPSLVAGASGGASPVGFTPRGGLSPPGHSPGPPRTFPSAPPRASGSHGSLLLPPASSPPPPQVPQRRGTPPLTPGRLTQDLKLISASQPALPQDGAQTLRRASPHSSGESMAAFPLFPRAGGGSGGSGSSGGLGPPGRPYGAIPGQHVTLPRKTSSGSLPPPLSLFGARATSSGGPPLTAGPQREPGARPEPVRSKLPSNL
The experiment in a line: cell-based.

In the next assay the target is KCNQ1 (Homo sapiens, UniProt P51787). The assay can be described thus: cell-based.
Sequence of KCNQ1 (P51787 whole entry): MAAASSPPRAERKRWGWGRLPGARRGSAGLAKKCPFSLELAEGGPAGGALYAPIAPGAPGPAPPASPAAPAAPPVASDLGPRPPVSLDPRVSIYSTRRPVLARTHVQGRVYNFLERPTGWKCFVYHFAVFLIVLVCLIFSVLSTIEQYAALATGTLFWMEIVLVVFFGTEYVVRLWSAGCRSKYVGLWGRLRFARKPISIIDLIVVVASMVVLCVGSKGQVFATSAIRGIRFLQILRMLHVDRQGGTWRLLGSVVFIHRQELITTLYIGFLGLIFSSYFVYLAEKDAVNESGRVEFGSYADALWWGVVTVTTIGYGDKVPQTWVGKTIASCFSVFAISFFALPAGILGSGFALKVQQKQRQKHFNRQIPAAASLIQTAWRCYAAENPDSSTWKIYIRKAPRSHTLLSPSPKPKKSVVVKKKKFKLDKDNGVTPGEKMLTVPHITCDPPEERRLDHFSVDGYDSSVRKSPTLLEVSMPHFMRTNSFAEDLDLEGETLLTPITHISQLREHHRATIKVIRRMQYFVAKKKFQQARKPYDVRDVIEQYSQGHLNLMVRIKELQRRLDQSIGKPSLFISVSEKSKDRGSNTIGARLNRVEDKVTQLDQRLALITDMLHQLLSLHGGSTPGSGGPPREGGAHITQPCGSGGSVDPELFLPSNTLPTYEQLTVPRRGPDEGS
The next assay addresses T3, Kv4.3 (Homo sapiens, UniProt Q9UK17).
T3 sequence (Q9UK17 1-655): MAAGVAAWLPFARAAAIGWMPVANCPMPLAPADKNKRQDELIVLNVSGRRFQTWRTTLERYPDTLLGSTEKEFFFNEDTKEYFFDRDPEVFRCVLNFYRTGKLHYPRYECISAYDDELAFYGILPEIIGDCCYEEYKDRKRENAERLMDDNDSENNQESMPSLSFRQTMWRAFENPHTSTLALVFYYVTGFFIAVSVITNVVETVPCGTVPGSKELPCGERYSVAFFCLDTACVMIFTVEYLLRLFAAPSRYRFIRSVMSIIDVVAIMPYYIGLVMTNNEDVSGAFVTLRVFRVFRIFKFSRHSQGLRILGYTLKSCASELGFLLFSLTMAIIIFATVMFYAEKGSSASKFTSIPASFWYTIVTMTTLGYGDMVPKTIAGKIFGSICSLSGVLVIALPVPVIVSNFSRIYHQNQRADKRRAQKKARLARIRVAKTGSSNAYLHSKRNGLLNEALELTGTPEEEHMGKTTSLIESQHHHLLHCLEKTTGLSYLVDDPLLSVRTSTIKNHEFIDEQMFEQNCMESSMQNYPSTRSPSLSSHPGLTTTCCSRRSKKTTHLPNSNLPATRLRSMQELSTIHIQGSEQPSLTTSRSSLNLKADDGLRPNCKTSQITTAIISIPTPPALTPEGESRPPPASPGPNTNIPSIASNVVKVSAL
The experiment in a line: cell-based.

The term EC50 denotes the concentration needed to bring the measured effect to its halfway point. Lower therefore signals higher potency in that assay. Broadly, the IC50 is the concentration at which inhibition is half-maximal. A lower IC50 goes with higher potency.

Sequence of TASK-1 (K2P3.1), wild type (O14649 whole entry): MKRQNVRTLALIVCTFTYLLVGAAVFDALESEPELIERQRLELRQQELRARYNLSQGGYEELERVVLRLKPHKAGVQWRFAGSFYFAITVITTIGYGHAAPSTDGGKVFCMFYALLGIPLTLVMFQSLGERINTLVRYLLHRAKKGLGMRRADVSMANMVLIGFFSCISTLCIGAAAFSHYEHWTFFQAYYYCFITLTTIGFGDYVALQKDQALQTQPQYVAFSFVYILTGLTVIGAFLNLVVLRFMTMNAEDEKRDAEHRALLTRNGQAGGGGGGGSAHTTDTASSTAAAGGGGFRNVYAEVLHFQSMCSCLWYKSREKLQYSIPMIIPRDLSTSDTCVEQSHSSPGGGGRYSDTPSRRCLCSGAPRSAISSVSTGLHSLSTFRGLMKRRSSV

In assay [1], `O=C(c1ccccc1F)N1CCN(Cc2c(-c3ccc(Br)cc3)nc3ccccn23)CC1` [BAY 1000493, (4-{[2-(4-bromophenyl)imidazo[1,2-a]pyridin-3-yl]methyl}vpiperazin-1-yl)(2-fluorophenyl)methanone] came in with an EC50 of 0.0095 µM. The IC50 is more than 30 µM against Kir3.1/3.4; more than 30 µM at TRPA1; more than 30 µM against HCN4; more than 30 µM against KCNQ1; more than 10 µM at Kv4.3.
